From publication PMC9995496, “A screen for MeCP2-TBL1 interaction inhibitors using a luminescence-based assay” (Scientific Reports, 2023) come the findings set out here.

The target in the assay is T1, MeCP2-TBL1 interaction (MeCP2-SmBiT / TBL1-LgBiT) (Mus musculus, UniProt Q9QXE7).
T1 construct: expressed in transfected cells; crude lysate used as a cell-free assay
T1 sequence (Q9QXE7 166-527): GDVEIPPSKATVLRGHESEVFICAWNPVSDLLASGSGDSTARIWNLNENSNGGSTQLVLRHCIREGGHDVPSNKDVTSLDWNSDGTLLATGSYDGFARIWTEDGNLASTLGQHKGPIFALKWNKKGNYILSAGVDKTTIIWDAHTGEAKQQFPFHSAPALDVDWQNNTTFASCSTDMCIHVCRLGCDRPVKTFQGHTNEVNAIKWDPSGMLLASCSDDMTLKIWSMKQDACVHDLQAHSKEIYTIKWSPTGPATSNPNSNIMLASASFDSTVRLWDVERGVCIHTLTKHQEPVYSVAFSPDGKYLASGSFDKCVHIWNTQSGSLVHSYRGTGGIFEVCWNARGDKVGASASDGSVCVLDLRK
As to the kind of experiment: MeCP2-TBL1 NanoLuc luciferase complementation assay (cell-free, extracts of transfected HEK293 cells). The class given is binding, human. Conditions: for inhibition in MeCP2-TBL1 assay compared with control PKA-based assay, individual validation / inhibition at 20 µM: 20 µM; for inhibition in MeCP2-TBL1 assay compared with control PKA-based assay, individual validation: n = 7, t-test; for separation between MeCP2-TBL1 inhibition and inhibition of the PKA control in dose response: PKA-based assay run in parallel; for inhibition at 20 µM: ApexBio library screen, threshold SSMD* ≥ 3, read-out: inhibition in MeCP2-TBL1 assay after adjusting for activity in the PRKACA-PRKAR2A assay; for IC50: dose response 0.3–60 μM, triplicate, 30 min, luminescence normalized to DMSO, read-out: IC50, inhibition of MeCP2-TBL1 luminescence signal. An excerpt: To facilitate the discovery of inhibitors of the interaction between MeCP2 and TBL1/TBLR1, we set out to devise a simple and scalable biochemical assay for measuring the interaction between these two proteins. We initially explored the possibility of screening compound libraries using a previously established fluorescence polarization assay that depends on purified recombinant TBL1/TBLR1[26]. […] The resulting luminescence signal depends on the affinity between the two interacting proteins of interest (Fig. 1A). This method was originally developed to allow for the interrogation of protein–protein interactions in vivo. However, in order to facilitate large scale screening of chemical libraries, we adapted the assay for use as a cell-free system.
We fused the large N-terminal fragment of NanoLuc (LgBiT) to the C-terminus of the WD repeat domains of both TBL1 and TBLR1, and the small C-terminal fragment of NanoLuc (SmBiT) to the C-terminus of the C-terminal half of MeCP2 (Fig. 1B and C). This region of MeCP2 contains the NID (NCoR interaction domain)—the motif in MeCP2 that binds to TBL1/TBLR1.
The AgeI-NotI restriction fragment (encoding EGFP) was then replaced with a codon optimized SmBiT sequence to yield the MeCP2-SmBiT expression plasmid. The TBL1-LgBiT expression vector was derived from a TBL1-mCherry plasmid[25] by replacing the AgeI-NotI restriction fragment (encoding mCherry) with a codon optimized LgBiT sequence. SmBiT-PRKACA and LgBiT-PRKAR2A plasmids are commercially available (Promega, N203 and N204).
Cells were harvested after 24 h and cell pellets were stored at − 80 °C.
In the screens described here, the lysate obtained from a single 15 cm plate was used for 2.5 384-well assay plates. NanoLuc substrate (furimazine) (Promega, N1110) was diluted 1000-fold in passive lysis buffer (Promega, E1941) and added 1:1 to the lysate. Screening libraries were purchased from Asinex[40] and ApexBio (FDA-approved Drug Library, L1021). Compounds were dispensed using an Echo acoustic dispenser and tested at a final concentration of 20 µM in a total assay volume of 20 μl in 384-well plate format. DMSO was added to each well at a final concentration of 0.2% (v/v) and wells containing only DMSO were used as negative control. After 30 min incubation at room temperature, luminescence was measured on a Tecan M1000 multi-mode plate reader. Raw luminescence reads from each well on each plate were normalized to the median luminescence signal for that plate. In the ApexBio screen, the scaled and normalized PKA signal for each compound was subtracted from the MeCP2-TBL1 signal for the same compound. After plate normalization the robust SSMD (SSMD*) was calculated as described elsewhere. A threshold of SSMD* ≥ 3 was applied for discerning primary hits.
Assays were performed as described above except instead of a single concentration, a threefold serial dilution ranging from 60 to 0.03 μM was tested in triplicate for each of the compounds. Half-maximal inhibitory concentrations were calculated using global nonlinear regression by fitting the response data sets of all compounds simultaneously with a four-parameter logistic curve of log inhibitor concentration versus normalized luminescence using GraphPad Prism. During fitting, the maximum and minimum curve values were shared between the data sets.

The mark [1] stands for this setting: primary screen of the Asinex library, sheet "Sargen output Asinex library", one well per compound, Batch Ref. 1.
[2] abbreviates: primary screen of Asinex library, single well per compound.
Setting [3] is: primary screen of the Asinex library, sheet "Sargen output Asinex library", one well per compound.

As usually defined, the inhibition is the percentage by which the read-out fell short of the control. As usually defined, the IC50 is the concentration needed to halve the response being measured.

`C[C@@]12C[C@H]3[C@H](Cc4ccccc4)N[C@@H]1CCCC[C@@H]2N3C(=O)COc1ccccc1` [BDG_33505297]: the Inhibition percent under setting [1] is -0.84%. With `O=C1NCCNC(=O)C2(C/C=C/COc3ccccc31)CCN(C(=O)CCc1cccs1)CC2` [BDH_33701979], the Inhibition percent under setting [1] turned out to be 4.94%. On to `COc1cccc(C(=O)N2CCNC(=O)C2Cc2cccc(-c3cccc(F)c3)c2)c1OC` (centres unmarked) [BDD_21847933], for which, under setting [1], the Inhibition percent is given as 1.68%. In the case of `COc1ccc(C(=O)N2CCCC(Cc3ccccn3)C2)cc1NCc1cccnc1` (centres unmarked) [BDH_32341951], the Inhibition percent under setting [2] is -2.98. For the compound `COc1cccc(C2CN(Cc3ccccc3)C(=O)C23CCN(Cc2cccc(C(=O)O)c2)CC3)c1` (centres unmarked) [BDH_34129947], under setting [2], the Inhibition percent was -0.66. With `CC(=O)N1CCC(c2nc3c(c(NCCOc4cccc(C)c4C)n2)CN(C)CC3)CC1` [BDE_25367865], the Inhibition percent under setting [3] was 1.06%. For the compound `Cc1nc(C2CCN(C(=O)C3CCCC3)CC2)nc2c1CCC(=O)N2CCc1ccccc1` [BDE_24748773], the Inhibition percent under setting [1] is on record as -0.38%. Turning to `CNc1ncccc1CN1CCCC(c2cccc(Cc3cccc(F)c3)n2)C1` (centres unmarked) [BDC_27866586], the Inhibition percent under setting [3] worked out at 7.34%. Turning to `COc1cccc([C@@H]2C[C@]3(C)NC(=O)CCCC[C@@H]3N2CC(=O)Nc2ccc3c(c2)nc(C)n3C)c1` [BDH_33617989], under setting [3], the Inhibition percent is 1.66%. Consider `COc1ccc2c(c1)OC(C)(C)[C@H]1CC3(CCN(C(=O)CCn4ccnc4)CC3)CO[C@H]21` [BDG_33691777], for which, under setting [2], the Inhibition percent is given as -0.71. Regarding `Nc1ncc(-c2cccc(C(F)(F)F)c2)c(C2CCCCN2C(=O)CCNC(=O)c2cccnc2)n1` (centres unmarked) [BDH_33627369], the Inhibition percent under setting [1] is on record as 1.39%. Regarding `CCOc1cccc2c1OC(C)(C)[C@@H]1C[C@@H]3CNCC[C@H]3O[C@@H]21` [BDG_33956280], the Inhibition percent under setting [3] is -0.94%. With `CC1(C)Oc2c(O)cccc2[C@@H]2O[C@@H]3CCN(C(=O)c4cccc(Cn5ccnc5)c4)[C@@H]3C[C@H]21` [BDG_34133887], the Inhibition percent under setting [2] is listed as 0.92.

For the compound `CN1CCC(Cc2cccc(F)c2)(C(=O)N2CCCC(Cc3cccc4ncccc34)C2)CC1` (centres unmarked) [BDH_32354496], the Inhibition percent under setting [3] is -4.55%.

With `CC(=O)NCCCCCC(=O)N1C[C@@H](c2ccc(F)cc2)[C@@]2(CCCCC(=O)N2)C1` [BDG_34131511], the Inhibition percent under setting [2] is reported as 3.80. `CCOc1ccc(-c2cc(C(=O)N3[C@@H](Cc4ccccc4)[C@@H]4C[C@@]5(C)[C@H](CCC[C@@H]35)N4)[nH]n2)cc1` [BDG_33504765]: the Inhibition percent under setting [1] was determined as 12.86%.

With `C=C1C(=O)[C@]23[C@H](O)[C@H]1CC[C@H]2[C@@]12CO[C@]3(O)[C@@H](O)[C@@H]1C(C)(C)CC[C@@H]2O` [oridonin, reference compound], the “inhibition in MeCP2-TBL1 assay compared with control PKA-based assay, individual validation” value was “statistically significantly greater”; the inhibition at 20 µM was at least 35%; the half-maximal inhibitory concentration (IC50) came out at 34 µM. Also, under “0.3–60 μM”, the “separation between MeCP2-TBL1 inhibition and inhibition of the PKA control in dose response” value was “only modest selectivity”.

With `COC(C)(C)C(=O)N1CCC2(CC1)Oc1c(O)cccc1[C@H]1OCCC[C@@H]12` [BDG_33900229], under setting [3], the Inhibition percent was -2.79%. In the case of `Cc1ncc(C(=O)N2CCOCC2)c(C2CCCCN2C(=O)c2nccc3ccccc23)n1` (centres unmarked) [BDC_23573125], the Inhibition percent under setting [2] is -0.64. In the case of `CC(C)(O)[C@@H]1CC[C@](C)([C@H]2CC3(CCN(C(=O)c4ccc(-c5ccc(S(C)(=O)=O)cc5)cc4)CC3)CO2)O1` [BDH_33696510], the Inhibition percent under setting [1] was 0.0118%. Consider `Clc1ccc2c(c1)[C@H]1OCCC[C@@H]1C1(CCN(CC3CCOCC3)CC1)O2` [BDG_33901423], for which the Inhibition percent under setting [3] is given as -1.08%.

`CC(C)(NC(=O)Cc1ccccc1)C(=O)N1CCCC(Cc2cccn3ccnc23)CC1` (centres unmarked) [BDH_32327598]: under setting [2], the Inhibition percent is reported as -2.43. With `Cc1cnc(C(=O)N2CCC3(CC2)CO[C@@H]2c4ccc(O)cc4OC(C)(C)[C@H]2C3)cn1` [BDG_33691581], the Inhibition percent under setting [3] amounted to 1.04%. Turning to `CC(=O)N[C@H]1C[C@@H](C(=O)N(C)C)N(CC(=O)Nc2cccc3c2CCCC3)[C@H]1c1ccccc1` [BDH_33619991], under setting [1], the Inhibition percent is given as -0.19%. On to `COc1cccc2c1OC(C)(C)[C@H]1CC[C@H](C3CCN(CC(=O)O)CC3)O[C@H]21` [BDG_34129039], for which the Inhibition percent under setting [1] is -1.85%. With `NC(=O)c1cccc(-c2nccnc2C2CCCN(C(=O)COc3ccc(F)cc3)C2)c1` (centres unmarked) [BDD_27905103], the Inhibition percent under setting [2] is listed as -2.79. Consider `COc1cccc([C@@H]2C[C@]3(C)NC(=O)CCCC[C@@H]3N2CC(=O)Nc2ccc(N3CCCC3)cc2)c1` [BDH_33614614], for which the Inhibition percent under setting [2] is on record as -1.03.

For the compound `COCCc1ncc(CN2CCCC2c2cc(Cc3cccc(OC)c3)cc(C)n2)cn1` (centres unmarked) [BDE_25403133], the Inhibition percent under setting [1] is -4.16%. Take `O=C(NCCC1CCCCN1C(=O)c1ccnc(Oc2cccc(F)c2)c1)c1ccccc1` (centres unmarked) [BDH_32356851]: the Inhibition percent under setting [3] is given as -4.31%.

For `CCc1ccc(NC(=O)CN2[C@H]3CCCCC(=O)N[C@@]3(C)C[C@H]2c2cccc(OC)c2)cc1` [BDH_33625442], the Inhibition percent under setting [3] amounted to 10.53%. Regarding `Cc1ccc(=O)n(CC(=O)N2CCOC3(CC=CCN(CCc4ccccc4)C3=O)C2)n1` (centres unmarked) [BDF_25862113], the Inhibition percent under setting [2] is 3.93. Take `COc1cccc(CC(=O)N2CCC(c3nc(N(C)C)ncc3-c3ccccc3F)CC2)c1` [BDE_26728718]: the Inhibition percent under setting [1] is 20.50%. In the case of `Fc1cccc(COc2ccccc2CN2CCOCC(Cc3cn4ccnc4cn3)C2)c1` (centres unmarked) [BDH_32359710], the Inhibition percent under setting [3] is recorded as -1.22%. As for `COCCC(=O)N[C@@]1(C)C[C@@H](c2ccc(F)cc2)O[C@@H](c2ccc(N3CCCC3=O)cc2)C1` [BDH_34036118], the Inhibition percent under setting [2] came to 3.23. `O=C(c1ccccc1CN1CCOCC1)N1C2CCC1CC(Cc1cncc3ccccc13)C2` (centres unmarked) [BDH_32360830]: the Inhibition percent under setting [3] is on record as -0.42%. As for `Cc1ccc2c(c1)OC(C)(C)[C@H]1CC3(CCN(C(=O)CN4CCOCC4)CC3)CO[C@H]21` [BDG_33692107], the Inhibition percent under setting [1] was -1.45%.

Consider `CCNC(=O)c1noc(-c2cc(C(C)C)c(O)cc2O)c1-c1ccc(CN2CCOCC2)cc1` [luminespib, reference compound], for which the “inhibition in MeCP2-TBL1 assay compared with control PKA-based assay, individual validation” value is on record as “statistically significantly greater”; the inhibition at 20 µM is at least 35%; the IC50 turned out to be 31 µM. Also, where the note is “0.3–60 μM”, the “extent of MeCP2-TBL1 inhibition reached within the tested concentration range” value was “without being able to completely inhibit MeCP2-TBL1 binding”; the “separation between MeCP2-TBL1 inhibition and inhibition of the PKA control in dose response” value was “clear separation”. Turning to `Cn1c(COCC(=O)N2CCCCC2c2cc(C(=O)NC3CCCC3)[nH]n2)nc2ccccc21` (centres unmarked) [BDE_33628409], under setting [3], the Inhibition percent is given as -3.22%.

In the case of `O=C(c1ccccn1)N1CCCC1c1cc(CCOc2cccc(C(F)(F)F)c2)[nH]n1` (centres unmarked) [BDE_27113075], the Inhibition percent under setting [3] is recorded as -1.96%. Consider `CN(C)c1cncc(C2CCCN2C(=O)c2ccccc2OCCN2CCOCC2)n1` (centres unmarked) [BDH_32345043], for which the Inhibition percent under setting [2] was 1.00.
